Assay results: patent US8383638B2, “Aminobenzoquinazolinone M1 receptor positive allosteric modulators” (Merck Sharp & Dohme, priority 2009, dated 2013)

Biological target: T1, acetylcholine muscarinic M1 receptor (Homo sapiens, UniProt P11229)
T1 construct: expressed in transfected cells; host or cells: CHOnfat cells (CHO; also called CHOK1/hM1)
T1 sequence (P11229 1-460): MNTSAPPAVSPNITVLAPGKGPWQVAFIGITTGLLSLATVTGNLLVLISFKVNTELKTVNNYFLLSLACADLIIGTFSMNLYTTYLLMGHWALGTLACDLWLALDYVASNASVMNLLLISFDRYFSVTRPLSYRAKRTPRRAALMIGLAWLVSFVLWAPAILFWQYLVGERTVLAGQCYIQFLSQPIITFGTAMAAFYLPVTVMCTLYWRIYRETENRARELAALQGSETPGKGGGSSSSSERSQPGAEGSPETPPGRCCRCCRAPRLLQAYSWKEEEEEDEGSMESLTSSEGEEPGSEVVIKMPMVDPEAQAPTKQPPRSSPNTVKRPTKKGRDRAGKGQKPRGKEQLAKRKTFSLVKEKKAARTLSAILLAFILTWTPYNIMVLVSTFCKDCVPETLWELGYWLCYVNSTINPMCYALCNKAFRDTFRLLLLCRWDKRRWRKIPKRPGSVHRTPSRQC
Assay: muscarinic FLIPR assay: potentiation of acetylcholine (EC20)-stimulated intracellular Ca2+ in CHOnfat/hM1 cells
Assay type: cell-based
Settings: 4 min preincubation, then EC20 acetylcholine (3 nM final), positive allosteric modulator activity, read-out: IP Value (inflection point)
Description: The assay studies the effect of one or several concentrations of test compounds on basal or acetylcholine-stimulated Ca^2+ levels using FLIPR.
Compounds are prepared and subjected to a preincubation period of 4 min. Thereafter, a single EC20 concentration of acetylcholine is added to each well (3 nM final). The intracellular Ca^2+ level of each sample is measured and compared to an acetylcholine control to determine any modulatory activity.
Cells: CHOnfat/hM1, hM2, hM3 or hM4 cells are plated 24 hr before the assay at a density of 18,000 cells/well (100 μL) in a 384 well plate. CHOnfat/hM1 and CHOnfat/hM3 Growth Medium: 90% DMEM (Hi Glucose); 10% HI FBS; 2 mM L-glutamine; 0.1 mM NEAA; Pen-Strep; and 1 mg/ml Geneticin, are added. For M2Gqi5CHOnfat and M4Gqi5CHOnfat cells, an additional 600 ug/ml hygromycin is added.
Equipment: 384 well plate, 120 μL addition plate; 96-well Whatman 2 ml Uniplate Incubator, 37° C., 5% CO2; Skatron EMBLA-384 Plate Washer; Multimek Pipetting System; Genesis Freedom 200 System; Mosquito System; Temo Nanoliter Pipetting System; and FLIPR^384 Fluorometric Imaging Plate Reader System are used.
Buffers. Assay Buffer: Hanks Balanced Salt Solution, with 20 mM Hepes, 2.5 mM Probenecid (Sigma P-8761) first dissolved in 1 N NaOH, 1% Bovine Serum Albumin (Sigma A-9647). Dye Loading Buffer: Assay Buffer plus 1% Fetal Bovine Serum and Fluo-4AM/Pluronic Acid Mixture. 2 mM Fluo-4AM ester stock in DMSO (Molecular Probes F-14202) Concentration of 2 μM in buffer for a final concentration of 1 μM in Assay. 20% Pluronic Acid Solution stock, with concentration of 0.04% in Buffer, 0.02% in Assay.
65 μL of 2 mM Fluo-4AM are mixed with 130 μL of 20% Pluronic Acid. The resulting solution and 650 μL FBS is added to the assay buffer for a total volume of 65 mL. Positive Controls: 4-Br-A23187: 10 mM in DMSO; final concentration 10 μM. Acetylcholine: 10 mM in water, working stock at both 20 μM and 30 μM in assay buffer, final concentration of 10 μM. This is used to check the maximum stimulation of the CHOK1/hM1 cells. 20 μM (2×) acetylcholine is added in the preincubation part of the assay, and the 30 μM (3×) stock is added in the second part. (EC20)Acetylcholine: 10 mM in water, working stock of 9 nM (3×), and final concentration in assay is 3 nM. This is used after the preincubation with test compounds. Addition of the EC20 Acetylcholine to each well with a test compound will ascertain any modulator activity. 24 wells contain 3 nM Acetylcholine alone as a control.
Screening Plate Compounds are titrated in 96-well plates (columns 2-11), 100% DMSO, started at a concentration of 15 mM (150× stock concentration), and 3-fold serial dilutions using Genesis Freedom200 System. Four 96-well plates are combined into a 384-well plate using Mosquito Nanoliter Pipetting System by transferring 1 μl of serial diluted compounds to each well, and 1 mM acetylcholine (100× stock concentration) were added as a control. Using Temo, 49 μl assay buffer is added to each well of the 384-well plate right before assay.
In a 96-well Whatman 2 ml Uniplate, 9 nM Acetylcholine (3×) is pipetted into wells corresponding to the screening compounds, and into control wells. The 30 μM acetylcholine control (3×) is added into control wells, and the 3× agonist plate is transferred into a 384 well plate.
Cells are washed three times with 100 μL of buffer, leaving 30 μL of buffer in each well. Using Multimek, 30 μL of Dye Loading Buffer is added into each well and incubated at 37° C., 5% CO2 for up to one hr.
After 60 min, the cells are washed three times with 100 μL of buffer, leaving 30 μL […] of buffer in each well. The cell plate, screening plate, and agonist addition plates are placed on the platform in the FLIPR and the door closed. A signal test to check background fluorescence and basal fluorescence signal is performed. Laser intensity is adjusted if necessary. […]

SMILES | EC50 [µM]
N#CC1(c2ccccn2)CCN(Cc2cc3c(=O)n([C@H]4CCCC[C@@H]4O)cnc3c3ccccc23)CC1 [Example 2, 1-({3-[(1S,2S)-2-Hydroxycyclohexyl]-4-oxo-3,4-dihydrobenzo[h]quinazolin-6-yl}methyl)-4-pyridin-2-ylpiperidine-4-carbonitrile] | 0.018
N#CC1(c2ccccn2)CCN(Cc2cc3c(=O)n([C@H]4CCOC[C@@H]4O)cnc3c3ccccc23)CC1 [Example 3] | 0.031
N#CC1(c2ccccn2)CCN(Cc2cc3c(=O)n([C@H]4CCCC[C@@H]4O)cnc3c3ccccc23)CC1 (racemic) [Example 1, rac-1-({3-[(1R,2R)-2-Hydroxycyclohexyl]-4-oxo-3,4-dihydrobenzo[h]quinazolin-6-yl}methyl)-4-pyridin-2-ylpiperidine-4-carbonitrile] | 0.045
CC1(C#N)CCN(Cc2cc3c(=O)n([C@H]4CCCC[C@@H]4O)cnc3c3ccccc23)CC1 [Example 8, 1-({3-[(1S,2S)-2-Hydroxycyclohexyl]-4-oxo-3,4-dihydrobenzo[h]quinazolin-6-yl}methyl)-4-methylpiperidine-4-carbonitrile] | 0.339
Cc1ccnc(C2(C#N)CCN(Cc3cc4c(=O)n([C@H]5CCCC[C@@H]5O)cnc4c4ccncc34)CC2)c1 [Example 5, 1-({3-[(1S,2S)-2-Hydroxycyclohexyl]-4-oxo-3,4-dihydropyrido[3,4-h]quinazolin-6-yl}methyl)-4-(4-methylpyridin-2-yl)piperidine-4-carbonitrile] | 0.021
Cn1cc(N2CCN(Cc3cc4c(=O)n([C@H]5CCCC[C@@H]5O)cnc4c4ccccc34)CC2=O)cn1 (racemic) [Example 7, rac-3[(1R,2R)-2-Hydroxycyclohexyl]-6-{[4-(1-methyl-1H-pyrazol-4-yl)-3-oxopiperazin-1-yl]methyl}benzo[h]quinazolin-4(3H)-one] | 0.044
O=c1c2cc(CN3CCC(F)(c4ccccn4)CC3)c3ccccc3c2ncn1[C@H]1CCCC[C@@H]1O [Example 9, 6-[(4-Fluoro-4-pyridin-2-ylpiperidin-1-yl)methyl]-3-[(1S,2S)-2-hydroxycyclohexyl]benzo[h]quinazolin-4(3H)-one] | 0.105
O=c1c2cc(CN3CCN(c4ccsc4)CC3)c3ccccc3c2ncn1[C@H]1CCCC[C@@H]1O [Example 6, 3-[(1S,2S)-2-Hydroxycyclohexyl]-6-{[4-(3-thienyl)piperazin-1-yl]methyl}benzo[h]quinazolin-4(3H)-one] | 0.387
N#CC1(c2ccccn2)CC[N+]([O-])(Cc2cc3c(=O)n([C@H]4CCCC[C@@H]4O)cnc3c3ccccc23)CC1 (stereo partly drawn) [Example 4, 1-({3-[(1S,2S)-2-Hydroxycyclohexyl]-4-oxo-3,4-dihydrobenzo[h]quinazolin-6-yl}methyl)-4-pyridin-2-ylpiperidine-4-carbonitrile 1-oxide] | 3.88
